The values below come from publication PMC12494099, “Discovery and Characterization of Novel IKZF1/3 Glue Degraders against Multiple Hematological Cancer Cell Lines” (Oncology Research, 2025).

Common to all, as to assay type: cell-based
The subject of test [1] is MV-4-11. Briefly: Cell viability (CCK-8) assay. The following applies: Homo sapiens, 96 h, CCK-8. How it is done:
(§1) The plated at a density of 15,000 cells per well, and each well contained 100 µL of medium. Subsequently, different compounds (MGD-AX, MGD-BX, MGD-CX) were added to each well. […] To evaluate the antiproliferative effects of these compounds, the Cell Counting Kit-8 (CCK-8, #CX007, Epizyme, Shanghai, China) was used. All procedures were carried out in strict accordance with the manufacturer’s instructions (Dojindo Laboratories, Mamoto Ken, Japan).

A further test deals with NCI-H929. Briefly: Cell viability (CCK-8) assay. The settings on record: Homo sapiens, NCI-H929, 96 h. As to the method:
as §1

For another test, the system named is Ocl-Ly3. Briefly: Cell viability (CCK-8) assay. The settings on record: 96 h, CCK-8. As to the method:
as §1

Test [2] deals with NCI-H929 (MM), MV-4-11(AML), and Ocl-Ly3 (DLBCL) cells. As to the kind of experiment: Cell viability (CCK-8) assay, statements on the whole three-line panel. The following applies: for antiproliferative activity (in words): compared with the prototypical IMiDs. As to the method: Multiple cell lines (NCI-H929, OPM-2, U937, Ocl-Ly3, RPMI-8226, MOLM-13, Skm-1, MUTZ-1, SU-DHL-4, TMD8, U2932, WSU-DLCL-2, MV-4-11 and KG-1 cells) were plated into 96-well plates. The plated at a density of 15,000 cells per well, and each well contained 100 µL of medium. Subsequently, different compounds (MGD-AX, MGD-BX, MGD-CX) were added to each well. These compounds’ concentrations were set at 0, 0.01, 0.033, 0.1, 0.33, 1, 3.3, 10 and 33 μM, and the cells were incubated with the compounds for 96 h. To evaluate the antiproliferative effects of these compounds, the Cell Counting Kit-8 (CCK-8, #CX007, Epizyme, Shanghai, China) was used. All procedures were carried out in strict accordance with the manufacturer’s instructions (Dojindo Laboratories, Mamoto Ken, Japan). The half maximal inhibitory concentrations (IC50) values, which represent the concentrations of the test compounds that can inhibit 50% of cell activity, were calculated using GraphPad Prism 8.0 (GraphPad Software Inc., San Diego, CA, USA).

The next test deals with KG-1. As to the kind of experiment: Cell viability (CCK-8) assay. The settings on record: Homo sapiens, KG-1, 96 h, read-out: IC50 (μM) KG-1. As to the method:
as §1

The subject of a further test is MOLM-13. As to the kind of experiment: Cell viability (CCK-8) assay. The following applies: Homo sapiens, MOLM-13, 96 h, read-out: IC50 (μM) MOLM-13. As to the method: as §1
A further test has as its system MUTZ-1. Briefly: Cell viability (CCK-8) assay. The following applies: 96 h, read-out: IC50 (μM) MUTZ-1. As to the method: as §1
The subject of a further test is OPM-2. As to the kind of experiment: Cell viability (CCK-8) assay. The following applies: Homo sapiens, OPM-2, 96 h, read-out: IC50 (μM) OPM-2. How it is done:
as §1

A further test relates to RPMI-8226. Briefly: Cell viability (CCK-8) assay. The settings on record: Homo sapiens, RPMI-8226, 96 h, read-out: IC50 (μM) RPMI-8226. How it is done:
as §1

The subject of the next test is SU-DHL-4. As to the kind of experiment: Cell viability (CCK-8) assay. The settings on record: Homo sapiens, SU-DHL-4, 96 h, read-out: IC50 (μM) SU-DHL-4. How it is done:
as §1

In another test the test system is Skm-1. As to the kind of experiment: Cell viability (CCK-8) assay. The settings on record: Homo sapiens, SKM-1, 96 h, read-out: IC50 (μM) Skm-1. How it is done: as §1
Another test concerns TMD8. Briefly: Cell viability (CCK-8) assay. The settings on record: Homo sapiens, TMD8, 96 h, read-out: IC50 (μM) TMD8. How it is done: as §1
The next test concerns U2932. As to the kind of experiment: Cell viability (CCK-8) assay. The following applies: Homo sapiens, U2932, 96 h, read-out: IC50 (μM) U2932. As to the method: as §1
The test system of another test is U937. Briefly: Cell viability (CCK-8) assay. The settings on record: Homo sapiens, U-937, 96 h, read-out: IC50 (μM) U937. As to the method:
as §1

A further test has as its system WSU-DLCL-2. As to the kind of experiment: Cell viability (CCK-8) assay. The following applies: Homo sapiens, WSUDLCL2, 96 h, read-out: IC50 (μM) WSU-DLCL-2. As to the method: as §1
A further test addresses T1, IKZF1-HiBiT (Homo sapiens, UniProt Q13422+Q96SW2).
T1 construct: expressed in transfected cells; host or cells: HEK293T
Briefly: Quantitative degradation assay using the HiBiT system (HEK293T). The settings on record: HEK-293T; HEK293T IKZF1-HiBiT, 24 h; read-out: maximal degradation (Dmax) on IKZF1. How it is done:
(§2) An in vitro quantitative degradation assay utilizing the HiBiT system was carried out as previously described. To evaluate the degradation of IKZF1, IKZF2, and IKZF3 proteins, HEK293T cell lines stably expressing IKZF1-, IKZF2-, IKZF3-, GSPT1- or CK1α-HiBiT were cultured in 96-well plates at 12,000 cells per well. […] After the treatment, cell lysis was carried out using the Nano-Glo HiBiT Lytic Detection System (#N3040, Promega). All lysis operations were strictly carried out according to the manufacturer’s specific protocol. Then, the SpectraMax iD3 instrument (Molecular Devices, San Jose, CA, USA) was used to detect the luminescent signals released by the HiBiT-tagged neosubstrates.

The target in another test is T2, IKZF3-HiBiT (Homo sapiens, UniProt Q96SW2+Q9UKT9).
T2 construct: expressed in transfected cells; host or cells: HEK293T
The test is described as above. The following applies: HEK-293T; HEK293T IKZF3-HiBiT, 24 h; read-out: maximal degradation (Dmax) on IKZF3. How it is done: as §2
(The HiBiT peptide binds its large partner to form an active luciferase.)

The test system of test [3] is MV-4-11. Briefly: Cell apoptosis assay (Annexin V flow cytometry). The following applies: MV-4-11, 10 µM. How it is done: (§3) Cells (NCI-H929 and MV-4-11) were seeded at a density of 1 × 10^6 cells per well into 6-well dishes. […] Apoptosis was assessed using an Annexin V-FITC kit (#ab14085; Abcam, MA, USA) on a FACS Calibur Flow Cytometer (Becton Dickinson, Franklin Lakes, NJ, USA). For cell cycle analysis, cells were fixed in 75% ethanol (−20°C/overnight), washed with PBS (pH = 7.2–7.4, 1×), treated with RNase A (0.2 mg/mL, 37°C/30 min), stained with PI (10 μg/mL), and analyzed on the same instrument. Finally, the samples were analyzed using a FACS Calibur Flow Cytometer.
Background: In flow cytometry, cells or beads pass a laser one at a time.

In test [4] the test system is control vector NCI-H929 cells. Briefly: Cell apoptosis assay, control vector cells. How it is done:
[…] NCI-H929 and MV-4-11 cells were seeded at a density of 1 × 10^6 cells/well in 6-well tissue culture-treated plates. According to the manufacturer’s protocol (Santa Cruz Biotechnology, Inc, Dallas, TX, USA), CRBN CRISPR/Cas9 knockout Plasmid (#sc-412142), CRBN HDR plasmid (#sc-412142-HDR), UltraCruz® Transfection Reagent (#sc-395739) were pre-mixed in Plasmid Transfection Medium (#sc-108062) at a 1:1:2 mass ratio, and cells were transiently transfected in a 37°C, 5% CO2 incubator. After 72 h of infection, the medium was replaced with complete medium containing 3 μg/mL puromycin for 5–7 days. On day 7, GFP-positive cells were sorted as single cells into 96-well plates. Isolated single-cell clones were screened via western blot analysis, using wild-type NCI-H929 or MV-4-11 cells as positive controls.
as §3

T2 sequence (Q9UKT9 whole entry): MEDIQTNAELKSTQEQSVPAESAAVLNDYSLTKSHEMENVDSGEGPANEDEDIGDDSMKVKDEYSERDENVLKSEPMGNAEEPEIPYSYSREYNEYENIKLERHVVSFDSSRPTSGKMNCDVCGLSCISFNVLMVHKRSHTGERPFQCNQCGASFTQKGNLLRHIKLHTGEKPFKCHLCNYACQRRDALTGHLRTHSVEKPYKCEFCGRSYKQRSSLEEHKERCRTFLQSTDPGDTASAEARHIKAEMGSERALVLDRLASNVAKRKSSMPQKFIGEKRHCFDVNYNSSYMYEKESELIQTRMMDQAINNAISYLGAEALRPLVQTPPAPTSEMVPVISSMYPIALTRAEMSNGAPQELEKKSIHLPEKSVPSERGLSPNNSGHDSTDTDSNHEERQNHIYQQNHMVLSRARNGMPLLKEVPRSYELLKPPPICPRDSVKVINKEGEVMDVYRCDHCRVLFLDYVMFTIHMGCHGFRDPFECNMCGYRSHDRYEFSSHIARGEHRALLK
T2 sequence (Q96SW2 whole entry): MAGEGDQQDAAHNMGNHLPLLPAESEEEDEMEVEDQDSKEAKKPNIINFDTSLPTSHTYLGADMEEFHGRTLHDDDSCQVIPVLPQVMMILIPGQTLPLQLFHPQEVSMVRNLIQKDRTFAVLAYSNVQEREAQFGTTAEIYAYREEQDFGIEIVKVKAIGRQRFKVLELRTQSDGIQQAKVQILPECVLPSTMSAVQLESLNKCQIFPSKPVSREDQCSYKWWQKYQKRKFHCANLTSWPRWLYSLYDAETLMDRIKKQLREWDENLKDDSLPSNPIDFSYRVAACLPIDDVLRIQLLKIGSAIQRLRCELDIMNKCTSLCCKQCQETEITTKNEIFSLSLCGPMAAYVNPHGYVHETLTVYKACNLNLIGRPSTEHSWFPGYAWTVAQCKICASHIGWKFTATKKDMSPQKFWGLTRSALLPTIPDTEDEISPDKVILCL
T2 sequence (Q16531 whole entry partner): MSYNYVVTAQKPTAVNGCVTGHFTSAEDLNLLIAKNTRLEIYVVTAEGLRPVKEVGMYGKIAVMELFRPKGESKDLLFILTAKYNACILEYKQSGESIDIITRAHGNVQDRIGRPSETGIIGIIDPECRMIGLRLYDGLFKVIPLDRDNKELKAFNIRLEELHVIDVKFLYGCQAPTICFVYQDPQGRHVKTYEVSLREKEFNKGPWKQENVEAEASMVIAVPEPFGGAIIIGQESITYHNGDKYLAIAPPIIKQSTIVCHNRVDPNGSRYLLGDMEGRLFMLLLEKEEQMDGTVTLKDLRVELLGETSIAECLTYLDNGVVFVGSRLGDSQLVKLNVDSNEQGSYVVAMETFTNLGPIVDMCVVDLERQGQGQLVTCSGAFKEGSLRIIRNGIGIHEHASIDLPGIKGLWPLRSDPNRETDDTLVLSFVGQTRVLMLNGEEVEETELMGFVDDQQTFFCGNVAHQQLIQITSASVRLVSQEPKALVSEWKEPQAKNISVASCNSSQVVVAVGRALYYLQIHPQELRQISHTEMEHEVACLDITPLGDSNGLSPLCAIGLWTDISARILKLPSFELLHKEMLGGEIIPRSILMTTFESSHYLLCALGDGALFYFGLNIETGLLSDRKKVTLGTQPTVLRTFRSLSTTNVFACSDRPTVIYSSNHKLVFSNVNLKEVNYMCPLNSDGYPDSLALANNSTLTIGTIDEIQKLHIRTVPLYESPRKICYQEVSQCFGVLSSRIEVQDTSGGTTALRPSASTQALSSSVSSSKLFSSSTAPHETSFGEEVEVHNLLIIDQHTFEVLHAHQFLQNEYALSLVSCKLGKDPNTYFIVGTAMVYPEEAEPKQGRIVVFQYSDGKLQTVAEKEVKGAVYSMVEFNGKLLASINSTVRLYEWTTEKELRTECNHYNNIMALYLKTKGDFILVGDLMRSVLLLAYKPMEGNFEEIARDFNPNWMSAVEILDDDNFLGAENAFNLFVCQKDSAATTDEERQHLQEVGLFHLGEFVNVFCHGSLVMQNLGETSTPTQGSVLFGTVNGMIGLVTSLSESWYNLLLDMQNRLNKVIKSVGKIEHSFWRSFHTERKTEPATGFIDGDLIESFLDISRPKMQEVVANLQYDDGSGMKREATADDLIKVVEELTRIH
T1 sequence (Q13422 whole entry): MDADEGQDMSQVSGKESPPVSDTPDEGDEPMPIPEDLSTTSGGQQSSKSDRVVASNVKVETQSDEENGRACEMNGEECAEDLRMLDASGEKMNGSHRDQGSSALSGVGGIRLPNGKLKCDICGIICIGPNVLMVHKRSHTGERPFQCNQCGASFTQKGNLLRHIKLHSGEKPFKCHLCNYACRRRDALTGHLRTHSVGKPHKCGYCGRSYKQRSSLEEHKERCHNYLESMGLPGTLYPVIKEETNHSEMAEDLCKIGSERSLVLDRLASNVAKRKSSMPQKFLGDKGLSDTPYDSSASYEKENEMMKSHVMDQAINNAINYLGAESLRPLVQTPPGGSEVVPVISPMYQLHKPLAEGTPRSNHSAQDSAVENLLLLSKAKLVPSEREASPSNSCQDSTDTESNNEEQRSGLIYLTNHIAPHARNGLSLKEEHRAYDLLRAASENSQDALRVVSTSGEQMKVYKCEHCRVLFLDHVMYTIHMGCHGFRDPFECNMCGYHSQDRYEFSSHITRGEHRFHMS
T1 sequence (Q96SW2 whole entry): as the sequence (Q96SW2 whole entry) above
T1 sequence (Q16531 whole entry partner): as the sequence (Q16531 whole entry partner) above

Turning to `O=C1CCC(NC(=O)c2cccc(C(=O)N3CCCC3)c2)C(=O)N1` (stereo not drawn) [MGD-A10, N-(2,6-dioxopiperidin-3-yl)-3-(pyrrolidine-1-carbonyl)benzamide], the concentration for half-maximal inhibition (IC50) was 8.34 ± 0.79 µM in the test with MV-4-11 [1] (MV4-11, 96 h); 14.2 ± 1.36 µM in the test on NCI-H929; above 33 µM in the test on Ocl-Ly3. Besides, the “antiproliferative activity (in words)” value in test [2] is listed as “mild activity”.
Consider `Nc1cccc2c1C(=O)N(C1CCC(=O)NC1=O)C2=O` (stereo not drawn) [Pomalidomide, reference compound], for which the IC50 with KG-1 was found to be 17.2 µM; in the test with MOLM-13 it was 12.4 µM; with MUTZ-1, 17.3 µM; in the test with MV-4-11 [1] (MV4-11), 16.1 ± 1.54 µM; in the test with NCI-H929, 2.18 ± 0.21 µM; with OPM-2 it was 0.204 µM. Besides, the IC50 in the test with Ocl-Ly3 was found to be 18.3 ± 1.74 µM; with RPMI-8226 it was 5.21 µM; in the test with SU-DHL-4, 22.4 µM; in the test on Skm-1, 20.1 µM; with TMD8, 15.3 µM; with U2932, 13.7 µM. For the same compound, the IC50 with U937 came to 13.8 µM; in the test on WSU-DLCL-2, 18.1 µM. Also, the values for the Dmax on IKZF1-HiBiT and on IKZF3-HiBiT were 76.2% and 69.4%, respectively. This compound came in with an apoptosis rate in the test with MV-4-11 [3] of 15.5%. In test [4], the “apoptosis (in words)” value is reported as “induced significant apoptosis”.
In the case of `Cc1nc2cccc(N)c2c(=O)n1C1CCC(=O)NC1=O` (stereo not drawn) [Avadomide, reference compound], the half-inhibitory concentration (IC50) in the test with MV-4-11 [1] (MV4-11, 96 h) amounted to 0.85 µM; with NCI-H929, 0.2 µM; in the test with Ocl-Ly3, 15.5 µM. Also, the Dmax on IKZF1-HiBiT was determined as 80.4%; at IKZF3-HiBiT, 83.1%.
As to `O=C1CCC(NC(=O)c2cccc(C(=O)N3CCCCC3)c2)C(=O)N1` (stereo not drawn) [MGD-A11, N-(2,6-dioxopiperidin-3-yl)-3-(piperidine-1-carbonyl)benzamide], the 50% inhibitory concentration (IC50) with MV-4-11 [1] (MV4-11, 96 h) came out at 5.47 ± 0.52 µM; in the test with NCI-H929, 8.33 ± 0.8 µM; in the test with Ocl-Ly3, 23 ± 2.19 µM. Also, in [2], the “antiproliferative activity (in words)” value is on record as “mild activity”.
Consider `CC1CCN(C(=O)c2cccc(C(=O)NC3CCC(=O)NC3=O)c2)CC1` (stereo not drawn) [MGD-A12, N-(2,6-dioxopiperidin-3-yl)-3-(4-methylpiperidine-1-carbonyl)benzamide], for which the IC50 in the test with MV-4-11 [1] (MV4-11, 96 h) is 14.3 ± 1.36 µM; with NCI-H929 it was 11.9 ± 1.14 µM; in the test on Ocl-Ly3, 15.3 ± 1.46 µM. In addition, the “fold reduction in potency compared with MGD-A5” value in test [2] (NCI-H929, MV-4-11 and Ocl-Ly3 cells) is “more than 3 fold”.
On to `O=C1CCC(NC(=O)c2cccc(C(=O)N3CCOCC3)c2)C(=O)N1` (stereo not drawn) [MGD-A14, N-(2,6-dioxopiperidin-3-yl)-3-(morpholine-4-carbonyl)benzamide], for which the IC50 turned out to be 5.1 ± 0.49 µM in the test with MV-4-11 [1] (MV4-11, 96 h); 7.43 ± 0.71 µM in the test on NCI-H929; 10.6 ± 1.01 µM in the test with Ocl-Ly3. Also, the “antiproliferative activity (in words)” value in test [2] was “mild activity”.

Broadly, the IC50 is the point on the concentration scale where inhibition reaches its midpoint. The Dmax is the largest share of the target that was removed.
